{"source": "patent US6733759B2", "about": "“Nutrient formulation and process for enhancing the health, livability, cumulative weight gain or feed efficiency in poultry and other animals” (Novus International, Inc., priority 1995, dated 2004)", "tested_on": "IgA in the bile", "experiment": "IgA in bile by indirect ELISA in birds given 1027 with or without adjuvants", "format": "in vivo, chickens", "details": "day 21 after oral vaccine and adjuvant in 1027", "description": "IgA is the antibody class associated with resistance to diseases which attack the intestinal mucosa, such as coccidiosis.\nThe data presented in FIG. 5 were obtained by indirect enzyme linked immunosorbent assay (ELISA) using monoclonal mouse anti-chicken IgA as the first antibody, polyclonal goat anti-chicken IgA as the second antibody, and biotin-conjugated anti-goat immunoglobulin for detection. Samples were read on an automated ELISA plate reader, and are corrected for differences in dilution.", "data": [{"molecule": "c1ccc([C@H]2CN3CCSC3=N2)cc1", "note": "[levamisole]", "values": [{"measurement": "IgA in the bile vs 1027 alone", "result": "higher day 21 biliary IgA levels"}]}]}
